Reference: patent US20260297542A1, “HERBICIDE RESISTANT PLANTS” (SYNGENTA CROP PROTECTION AG, priority 2023, published 2026)
Residue numbers refer to the chain shown, from its start.

Key:
Assay in all cases: E. coli hemG growth inhibition by herbicide, AtPPO1 variant
Type in all cases: cell-based
Details in all cases: read-out: percentage growth inhibition
[1] = target: T1, AtPPO1 Q272I (Arabidopsis thaliana, UniProt P55826, Q272I)
T1 construct: expressed in transfected cells; host or cells: E. coli BL21(DE3) hemG (hemG replaced by CmR), pET24a plasmid
T1 sequence (P55826 35-537 Q272I): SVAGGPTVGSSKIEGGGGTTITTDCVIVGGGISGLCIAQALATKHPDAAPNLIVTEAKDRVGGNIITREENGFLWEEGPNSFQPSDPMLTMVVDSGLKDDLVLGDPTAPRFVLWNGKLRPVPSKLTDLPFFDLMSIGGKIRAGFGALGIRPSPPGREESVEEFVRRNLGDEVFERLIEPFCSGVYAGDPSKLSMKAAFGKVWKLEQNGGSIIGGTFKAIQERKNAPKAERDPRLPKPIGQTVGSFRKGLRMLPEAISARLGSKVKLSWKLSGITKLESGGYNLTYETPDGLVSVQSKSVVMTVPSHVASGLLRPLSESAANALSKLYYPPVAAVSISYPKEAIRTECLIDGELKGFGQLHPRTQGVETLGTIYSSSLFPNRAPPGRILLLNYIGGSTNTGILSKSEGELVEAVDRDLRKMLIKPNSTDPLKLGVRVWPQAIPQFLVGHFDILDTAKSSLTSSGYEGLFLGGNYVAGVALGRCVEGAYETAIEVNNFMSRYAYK
Procedure, shortened: (§1)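 Variant plasmids were transformed into hemG-null BL21(DE3) and precultured 24 h with hematin. Washed cells were diluted 1:100 into Terrific broth containing 0.1 mM IPTG and herbicide (6.25 ppm 0 or E; 0.78 ppm B) or DMSO. After 24 h at 37° C, OD600 gave percent inhibition.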

[2] = target: T2, AtPPO1 T431F (Arabidopsis thaliana, UniProt P55826, T431F)
T2 construct: expressed in transfected cells; host or cells: E. coli BL21(DE3) hemG, pET24a plasmid
T2 sequence (P55826 35-537 T431F): T1 sequence (P55826 35-537 Q272I) with I238Q, T397F
Procedure, shortened: as §1

[3] = target: T3, AtPPO1 Y426T (Arabidopsis thaliana, UniProt P55826, Y426T)
T3 construct: expressed in transfected cells; host or cells: E. coli BL21(DE3) hemG (pET24a, T7 promoter)
T3 sequence (P55826 35-537 Y426T): T1 sequence (P55826 35-537 Q272I) with I238Q, Y392T
Procedure, shortened: as §1

[4] = target: T4, AtPPO1 Y361C (Arabidopsis thaliana, UniProt P55826, Y361C)
T4 construct: expressed in transfected cells; host or cells: E. coli BL21(DE3) hemG, pET24a plasmid
T4 sequence (P55826 35-537 Y361C): T1 sequence (P55826 35-537 Q272I) with I238Q, Y327C
Procedure, shortened: as §1

SMILES	inhibition at 0.78 ppm [1] [%]	inhibition at 0.78 ppm [2] [%]	inhibition at 0.78 ppm [3] [%]	inhibition at 0.78 ppm [4] [%]	inhibition at 6.25 ppm [1] [%]	inhibition at 6.25 ppm [2] [%]	inhibition at 6.25 ppm [3] [%]	inhibition at 6.25 ppm [4] [%]
C#CCN1C(=O)C(F)(F)Oc2cc(F)c(-n3c(=O)n(C)c(=S)n(C)c3=O)cc21 [Herbicide B, trifludimoxazin]	24	41	8	36				
CCOC(=O)[C@]1(C)CC(c2cc(-n3c(=O)n(C)c(=S)n(C)c3=O)c(F)cc2Cl)=NO1 [Herbicide D, ethyl (5S)-3-[2-chloro-5-(3,5-dimethyl-2,6-dioxo-4-thioxo-1,3,5-triazinan-1-yl)-4-fluoro-phenyl]-5-methyl-4H-isoxazole-5-carboxylate]					29	0	12	15
CC(C)N(C)S(=O)(=O)NC(=O)c1cc(-n2c(=O)cc(C(F)(F)F)n(C)c2=O)c(F)cc1Cl [Herbicide E, saflufenacil]					63	37	11	35
